Experimental data taken from patent US11174252B2, “Heterocyclic compounds as kinase inhibitors” (priority 2018, dated 2021).
Where two headings read alike, the source gives them in different places.

Tests used:
FMS kinase = FMS kinase (Homo sapiens (Human), UniProt P07333); assay: LanthaScreen kinase assay (ATP, fluorescent-PolyGT substrate, TR-FRET); format: biochemical
CDK1 (cyclin B) = CDK1 (cyclin B) (Homo sapiens (Human), UniProt P06493); assay: Z'-LYTE kinase assay; format: biochemical
Source text: The following equations were used for Z′-LYTE™ Screening Assay Data Analysis.

CDK2 (cyclin A) = CDK2 (cyclin A) (Homo sapiens (Human), UniProt P24941); assay: Z'-LYTE kinase assay; format: biochemical
Description: IC50 values of compounds against CDK2 (cyclin A) were determined by Z'-LYTETM. […] The following equations were used for Z'-LYTETM Screening Assay Data Analysis.

MCF-7 = assay: Cancer cell proliferation assay, single agent; format: cell-based; settings: Homo sapiens
PI3Kδ kinase = PI3Kδ kinase (Homo sapiens (Human), UniProt O00329); assay: PI3Kδ kinase ADP-Glo assay (Reaction Biology Corporation); settings: read-out: PI3Kδ IC50
PI3Kδ kinase, sequence (O00329 whole entry): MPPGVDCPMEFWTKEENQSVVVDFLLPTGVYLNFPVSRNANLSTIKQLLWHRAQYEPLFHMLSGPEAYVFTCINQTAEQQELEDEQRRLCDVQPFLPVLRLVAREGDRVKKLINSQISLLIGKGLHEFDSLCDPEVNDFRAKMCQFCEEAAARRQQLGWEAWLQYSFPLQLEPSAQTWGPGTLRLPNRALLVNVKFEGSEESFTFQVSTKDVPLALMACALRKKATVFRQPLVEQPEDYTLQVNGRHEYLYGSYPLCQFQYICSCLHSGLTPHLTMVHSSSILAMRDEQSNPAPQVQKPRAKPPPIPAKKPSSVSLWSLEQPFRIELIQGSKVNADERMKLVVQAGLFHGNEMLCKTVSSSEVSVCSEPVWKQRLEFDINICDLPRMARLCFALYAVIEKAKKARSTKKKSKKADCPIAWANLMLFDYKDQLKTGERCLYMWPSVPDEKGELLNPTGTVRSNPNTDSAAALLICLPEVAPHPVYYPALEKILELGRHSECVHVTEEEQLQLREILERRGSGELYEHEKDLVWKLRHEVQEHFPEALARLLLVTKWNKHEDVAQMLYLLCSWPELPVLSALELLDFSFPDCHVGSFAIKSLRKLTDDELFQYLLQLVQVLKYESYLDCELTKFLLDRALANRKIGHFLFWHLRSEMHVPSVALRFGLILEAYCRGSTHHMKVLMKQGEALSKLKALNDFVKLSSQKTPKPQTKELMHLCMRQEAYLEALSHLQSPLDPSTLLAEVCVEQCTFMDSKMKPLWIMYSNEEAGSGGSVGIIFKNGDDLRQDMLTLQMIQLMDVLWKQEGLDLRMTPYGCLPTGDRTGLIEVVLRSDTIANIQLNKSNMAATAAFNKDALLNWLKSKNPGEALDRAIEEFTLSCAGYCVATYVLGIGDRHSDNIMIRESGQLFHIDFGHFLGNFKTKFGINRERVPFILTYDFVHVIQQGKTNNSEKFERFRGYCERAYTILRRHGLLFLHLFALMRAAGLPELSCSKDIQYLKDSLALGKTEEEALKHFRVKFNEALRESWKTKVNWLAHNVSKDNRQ
PI3Kδ kinase, sequence (P27986 whole entry partner): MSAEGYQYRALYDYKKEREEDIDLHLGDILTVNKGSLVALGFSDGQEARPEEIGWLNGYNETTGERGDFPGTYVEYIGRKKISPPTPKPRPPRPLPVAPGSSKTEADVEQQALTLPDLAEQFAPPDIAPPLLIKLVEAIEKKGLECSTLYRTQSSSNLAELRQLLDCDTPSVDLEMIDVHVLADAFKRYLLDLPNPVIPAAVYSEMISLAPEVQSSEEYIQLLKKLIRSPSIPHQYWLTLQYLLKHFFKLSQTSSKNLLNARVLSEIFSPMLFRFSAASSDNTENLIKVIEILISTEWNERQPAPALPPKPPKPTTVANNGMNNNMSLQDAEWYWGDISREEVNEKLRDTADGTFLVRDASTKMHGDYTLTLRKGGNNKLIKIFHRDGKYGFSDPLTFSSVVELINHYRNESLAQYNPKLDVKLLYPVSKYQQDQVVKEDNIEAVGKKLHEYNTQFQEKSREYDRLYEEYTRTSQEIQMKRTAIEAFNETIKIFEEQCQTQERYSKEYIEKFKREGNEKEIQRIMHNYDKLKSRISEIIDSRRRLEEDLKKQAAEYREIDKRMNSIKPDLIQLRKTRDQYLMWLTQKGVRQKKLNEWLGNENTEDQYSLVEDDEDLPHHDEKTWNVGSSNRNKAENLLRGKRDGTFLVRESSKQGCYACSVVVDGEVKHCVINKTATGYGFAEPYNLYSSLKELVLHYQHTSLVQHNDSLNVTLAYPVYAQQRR

CDK5 (p25) = CDK5 (p25) (Homo sapiens (Human), UniProt Q00535); assay: Z'-LYTE kinase assay; format: biochemical
CDK5 (p25), sequence (Q00535 whole entry): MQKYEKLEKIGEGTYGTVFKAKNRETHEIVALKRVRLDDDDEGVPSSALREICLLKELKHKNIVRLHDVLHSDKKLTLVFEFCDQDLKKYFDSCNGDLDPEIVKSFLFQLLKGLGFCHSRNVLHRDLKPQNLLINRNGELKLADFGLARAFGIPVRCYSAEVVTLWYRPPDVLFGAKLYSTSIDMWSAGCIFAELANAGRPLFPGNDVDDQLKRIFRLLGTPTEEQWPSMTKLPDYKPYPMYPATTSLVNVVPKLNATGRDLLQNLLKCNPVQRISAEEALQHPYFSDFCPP
CDK5 (p25), sequence (Q15078 99-307 partner): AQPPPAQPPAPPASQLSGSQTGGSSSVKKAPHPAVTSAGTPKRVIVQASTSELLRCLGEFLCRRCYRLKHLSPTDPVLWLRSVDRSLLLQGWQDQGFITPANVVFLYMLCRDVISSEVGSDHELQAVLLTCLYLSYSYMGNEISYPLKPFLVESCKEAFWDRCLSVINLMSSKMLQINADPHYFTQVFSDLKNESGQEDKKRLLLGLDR
Source text: The following equations were used for Z'-LYTETM Screening Assay Data Analysis.

BT-549 = assay: Cancer cell proliferation assay, single agent; format: cell-based; settings: Homo sapiens; BT-549 cells; treated for 24-168 hours; read-out: IC50 (nM) BT-549
CDK7 (cyclin H) = CDK7 (cyclin H) (Homo sapiens (Human), UniProt P50613); assay: Adapta Assay; format: biochemical
CDK7 (cyclin H), sequence (P50613 whole entry): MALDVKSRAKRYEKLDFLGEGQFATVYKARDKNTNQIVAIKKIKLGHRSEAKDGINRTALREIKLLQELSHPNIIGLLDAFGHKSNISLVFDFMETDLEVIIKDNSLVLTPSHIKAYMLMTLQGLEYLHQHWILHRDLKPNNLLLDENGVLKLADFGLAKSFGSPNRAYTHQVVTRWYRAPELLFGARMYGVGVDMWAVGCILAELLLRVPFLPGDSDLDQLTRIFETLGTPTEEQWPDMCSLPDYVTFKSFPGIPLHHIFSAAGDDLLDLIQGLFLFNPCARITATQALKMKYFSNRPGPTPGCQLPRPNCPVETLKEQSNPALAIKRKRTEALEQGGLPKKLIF
CDK7 (cyclin H), sequence (P51946 whole entry partner): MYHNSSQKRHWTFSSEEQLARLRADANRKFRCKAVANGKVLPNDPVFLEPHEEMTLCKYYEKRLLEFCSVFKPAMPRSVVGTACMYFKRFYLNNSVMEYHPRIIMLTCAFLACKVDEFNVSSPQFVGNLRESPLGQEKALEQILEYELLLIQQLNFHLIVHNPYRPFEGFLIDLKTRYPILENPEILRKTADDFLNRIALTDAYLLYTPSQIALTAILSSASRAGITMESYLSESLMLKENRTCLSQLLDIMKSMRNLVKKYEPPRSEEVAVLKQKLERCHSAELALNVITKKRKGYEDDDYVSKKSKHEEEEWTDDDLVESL
CDK7 (cyclin H), sequence (P51948 whole entry partner): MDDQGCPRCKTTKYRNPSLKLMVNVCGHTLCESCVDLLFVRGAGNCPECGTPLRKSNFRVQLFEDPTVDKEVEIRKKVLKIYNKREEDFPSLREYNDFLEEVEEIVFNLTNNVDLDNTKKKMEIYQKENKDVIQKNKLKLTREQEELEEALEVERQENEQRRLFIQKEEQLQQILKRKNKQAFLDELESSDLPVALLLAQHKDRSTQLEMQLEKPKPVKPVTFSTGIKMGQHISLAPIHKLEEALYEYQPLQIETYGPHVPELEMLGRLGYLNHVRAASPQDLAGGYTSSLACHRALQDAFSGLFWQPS
Source text: The following equations were used for Adapta™ Assay Data Analysis.

CDK9 (cyclin K) = CDK9 (cyclin K) (Homo sapiens (Human), UniProt P50750); assay: LanthaScreen Eu Kinase Binding Assay; settings: read-out: CDK9/K IC50
DU4475 = assay: Cancer cell proliferation assay, single agent; format: cell-based; settings: Homo sapiens
CDK6 = CDK6 (Homo sapiens (Human), UniProt Q00534); assay: biochemical; format: biochemical
CDK4 = CDK4 (Homo sapiens (Human), UniProt P11802); assay: In vitro kinase inhibition, luminescence (ADP-Glo) with retinoblastoma substrate; format: biochemical
A549 = assay: Cancer cell proliferation assay, single agent; format: cell-based; settings: Homo sapiens; A549 cells; treated for 24-168 hours; read-out: IC50 (nM) A549
[1] = MCF7, read-out: IC50 (nM) MCF-7
[2] = DU-4475, DU4475 cells, treated for 24-168 hours, read-out: IC50 (nM) DU4475
[3] = MCF7, MCF-7 cells, treated for 24-168 hours, read-out: IC50 (nM) MCF-7
[4] = DU-4475, read-out: IC50 (nM) DU4475

CDK1 (cyclin B), sequence (P06493 whole entry): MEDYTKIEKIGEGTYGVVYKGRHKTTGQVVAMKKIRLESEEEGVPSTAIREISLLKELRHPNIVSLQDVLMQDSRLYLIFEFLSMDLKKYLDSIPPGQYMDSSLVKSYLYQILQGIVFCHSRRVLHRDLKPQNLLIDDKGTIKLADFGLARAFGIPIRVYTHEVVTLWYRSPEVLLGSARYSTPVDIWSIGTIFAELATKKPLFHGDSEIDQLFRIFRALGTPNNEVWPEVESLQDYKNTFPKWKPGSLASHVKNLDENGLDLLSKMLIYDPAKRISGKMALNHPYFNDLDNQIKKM
CDK1 (cyclin B), sequence (P14635 whole entry partner): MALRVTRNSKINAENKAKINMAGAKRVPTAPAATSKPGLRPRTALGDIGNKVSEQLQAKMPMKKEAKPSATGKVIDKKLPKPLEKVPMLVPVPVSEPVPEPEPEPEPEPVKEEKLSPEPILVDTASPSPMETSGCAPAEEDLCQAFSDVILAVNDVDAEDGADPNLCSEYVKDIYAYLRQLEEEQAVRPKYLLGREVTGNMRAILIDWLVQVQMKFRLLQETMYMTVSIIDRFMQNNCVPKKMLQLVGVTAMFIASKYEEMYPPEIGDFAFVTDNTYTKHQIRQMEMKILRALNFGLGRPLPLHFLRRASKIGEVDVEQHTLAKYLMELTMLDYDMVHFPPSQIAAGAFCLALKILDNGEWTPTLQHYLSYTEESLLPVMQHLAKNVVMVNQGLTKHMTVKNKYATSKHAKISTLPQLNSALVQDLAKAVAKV
FMS kinase, sequence (P07333 20-972): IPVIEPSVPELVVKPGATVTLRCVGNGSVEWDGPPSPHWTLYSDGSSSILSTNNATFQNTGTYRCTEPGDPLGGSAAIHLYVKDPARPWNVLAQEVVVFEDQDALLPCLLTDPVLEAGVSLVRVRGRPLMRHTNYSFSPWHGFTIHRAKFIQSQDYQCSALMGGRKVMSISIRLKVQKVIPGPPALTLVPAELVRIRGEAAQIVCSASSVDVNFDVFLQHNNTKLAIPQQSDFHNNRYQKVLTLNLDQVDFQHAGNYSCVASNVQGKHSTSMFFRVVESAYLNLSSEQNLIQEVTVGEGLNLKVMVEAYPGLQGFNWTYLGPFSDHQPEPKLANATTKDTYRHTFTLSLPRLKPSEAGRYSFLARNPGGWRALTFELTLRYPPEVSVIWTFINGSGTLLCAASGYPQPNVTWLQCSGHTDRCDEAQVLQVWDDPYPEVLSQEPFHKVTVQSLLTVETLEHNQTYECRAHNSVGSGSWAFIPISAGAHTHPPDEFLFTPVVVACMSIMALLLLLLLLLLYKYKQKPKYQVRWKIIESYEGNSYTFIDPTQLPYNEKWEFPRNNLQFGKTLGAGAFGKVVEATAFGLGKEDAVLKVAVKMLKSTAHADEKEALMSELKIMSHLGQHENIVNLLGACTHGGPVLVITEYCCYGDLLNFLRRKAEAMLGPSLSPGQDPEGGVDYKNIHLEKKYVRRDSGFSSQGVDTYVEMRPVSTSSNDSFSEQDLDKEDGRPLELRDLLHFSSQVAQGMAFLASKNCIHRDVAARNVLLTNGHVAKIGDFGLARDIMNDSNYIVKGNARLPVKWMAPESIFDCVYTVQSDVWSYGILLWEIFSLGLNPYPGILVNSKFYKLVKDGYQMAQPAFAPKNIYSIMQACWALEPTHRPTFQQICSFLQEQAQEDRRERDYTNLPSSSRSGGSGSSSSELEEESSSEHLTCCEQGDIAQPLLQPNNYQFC

For CCN1CCN(Cc2ccc(Nc3ncc(F)c(-c4cc(F)c5c(c4)N(C(C)C)CCO5)n3)nc2)CC1 [Compound 4, N-(5-((4-ethylpiperazin-1-yl)methyl)pyridin-2-yl)-5-fluoro-4-(8-fluoro-4-isopropyl-3,4-dihydro-2H-benzo[b][1,4]oxazin-6-yl)pyrimidin-2-amine], the IC50 (FMS kinase) was 566 nM, the IC50 (CDK1 (cyclin B)) was 130 nM and the IC50 (CDK2 (cyclin A)) was 12 nM. The IC50 (MCF-7; [1]) was 110 nM and the IC50 (PI3Kδ kinase) was > 5000 nM.

In the case of CC(C)N1CCOc2c(F)cc(-c3nc(Nc4ccc(N5CCC(N(C)C)CC5)c(F)c4)ncc3F)cc21 [Compound 25, N-(4-(4-(dimethylamino)piperidin-1-yl)-3-fluorophenyl)-5-fluoro-4-(8-fluoro-4-isopropyl-3,4-dihydro-2H-benzo[b][1,4]oxazin-6-yl)pyrimidin-2-amine], the IC50 (FMS kinase) is reported as 5 nM, the IC50 (CDK5 (p25)) is reported as 3.6 nM and the IC50 (BT-549) is reported as < 1110 nM. The IC50 (CDK7 (cyclin H)) was 145 nM, the IC50 (CDK9 (cyclin K)) was 5 nM and the IC50 (DU4475; [2]) was 46 nM. For the same compound, the IC50 (CDK1 (cyclin B)) was 6.7 nM, the IC50 (CDK2 (cyclin A)) was 3.4 nM and the IC50 (MCF-7; [3]) was 25 nM. The IC50 (PI3Kδ kinase) was 6100 nM.

CC(C)N1CCOc2c(F)cc(-c3nc(Nc4ccc(C5CCN(C)CC5)nc4)ncc3F)cc21 [Compound 33, 5-fluoro-4-(8-fluoro-4-isopropyl-3,4-dihydro-2H-benzo[b][1,4]oxazin-6-yl)-N-(6-(1-methylpiperidin-4-yl)pyridin-3-yl)pyrimidin-2-amine] was tested, and the IC50 (FMS kinase) was 48 nM, the IC50 (CDK5 (p25)) was 1 nM and the IC50 (CDK6) was 1.5 nM. For the same compound, the IC50 (CDK7 (cyclin H)) was 54 nM, the IC50 (CDK9 (cyclin K)) was 2 nM and the IC50 (DU4475; [4]) was 40 nM. For the same compound, the IC50 (CDK1 (cyclin B)) was 3 nM, the IC50 (CDK4) was 1.5 nM and the IC50 (CDK2 (cyclin A)) was 2 nM. The IC50 (MCF-7; [3]) was < 14 nM.

CC(C)N1CCOc2c(F)cc(-c3nc(Nc4ccc(N5CCC(N(C)C)CC5)nc4)ncc3F)cc21 [Compound 38, N-(6-(4-(dimethylamino)piperidin-1-yl)pyridin-3-yl)-5-fluoro-4-(8-fluoro-4-isopropyl-3,4-dihydro-2H-benzo[b][1,4]oxazin-6-yl)pyrimidin-2-amine] was tested, and the IC50 (FMS kinase) was 40 nM, the IC50 (CDK7 (cyclin H)) was 163 nM and the IC50 (DU4475; [2]) was 45 nM. It also gave an IC50 (CDK1 (cyclin B)) of 3 nM and an IC50 (MCF-7; [3]) of 20 nM.

With CC(C)N1CCOc2c(F)cc(-c3nc(Nc4ccc(N5CCC(N(C)C)CC5)cn4)ncc3F)cc21 [Compound 436, N-(5-(4-(dimethylamino)piperidin-1-yl)pyridin-2-yl)-5-fluoro-4-(8-fluoro-4-isopropyl-3,4-dihydro-2H-benzo[b][1,4]oxazin-6-yl)pyrimidin-2-amine] the IC50 (FMS kinase) was > 5000 nM, the IC50 (CDK5 (p25)) was 38 nM and the IC50 (CDK7 (cyclin H)) was 2360 nM. For the same compound, the IC50 (CDK9 (cyclin K)) was 73 nM, the IC50 (DU4475; [2]) was 383 nM and the IC50 (CDK1 (cyclin B)) was 82 nM. The IC50 (CDK2 (cyclin A)) was 8 nM, the IC50 (A549) was 390 nM and the IC50 (MCF-7; [3]) was 165 nM.

CC(C)N1CCOc2c(F)cc(-c3nc(Nc4ccn(C5CCNCC5)c(=O)c4)ncc3F)cc21 [Compound 437, 4-((5-fluoro-4-(8-fluoro-4-isopropyl-3,4-dihydro-2H-benzo[b][1,4]oxazin-6-yl)pyrimidin-2-yl)amino)-1-(piperidin-4-yl)pyridin-2(1H)-one] was tested, and the IC50 (FMS kinase) was 3 nM, the IC50 (CDK5 (p25)) was 7.7 nM and the IC50 (CDK7 (cyclin H)) was 85 nM. For the same compound, the IC50 (CDK1 (cyclin B)) was 9 nM, the IC50 (CDK2 (cyclin A)) was 3 nM and the IC50 (MCF-7; [3]) was 45 nM.

CC(C)N1CCOc2c(F)cc(-c3nc(Nc4ccc(C5CCN(C)CC5)cn4)ncc3F)cc21 [Compound 442, 5-fluoro-4-(8-fluoro-4-isopropyl-3,4-dihydro-2H-benzo[b][1,4]oxazin-6-yl)-N-(5-(1-methylpiperidin-4-yl)pyridin-2-yl)pyrimidin-2-amine] showed an IC50 (FMS kinase) of 353 nM, an IC50 (CDK5 (p25)) of 27 nM and an IC50 (CDK6) of 1 nM. The IC50 (CDK7 (cyclin H)) was 1160 nM, the IC50 (CDK9 (cyclin K)) was 41 nM and the IC50 (DU4475; [2]) was 503 nM. The IC50 (CDK1 (cyclin B)) was 73 nM, the IC50 (CDK4) was 2 nM and the IC50 (CDK2 (cyclin A)) was 7 nM. For the same compound, the IC50 (A549) was 465 nM, the IC50 (MCF-7; [3]) was 125 nM and the IC50 (PI3Kδ kinase) was > 50000 nM.

CC(C)N1CCOc2c(F)cc(-c3nc(Nc4ccc(N5CCOCC5)cn4)ncc3F)cc21 [Compound 446, 5-fluoro-4-(8-fluoro-4-isopropyl-3,4-dihydro-2H-benzo[b][1,4]oxazin-6-yl)-N-(5-morpholinopyridin-2-yl)pyrimidin-2-amine] was tested, and the IC50 (FMS kinase) was 1120 nM, the IC50 (CDK6) was 8.8 nM and the IC50 (CDK7 (cyclin H)) was > 10000 nM. The IC50 (CDK9 (cyclin K)) was 280 nM, the IC50 (DU4475; [2]) was 385 nM and the IC50 (CDK1 (cyclin B)) was 679 nM. For the same compound, the IC50 (CDK4) was 3.9 nM, the IC50 (CDK2 (cyclin A)) was 68 nM and the IC50 (MCF-7; [3]) was 850 nM. The IC50 (PI3Kδ kinase) was 21800 nM.

CC(C)N1CCOc2c(F)cc(-c3nc(Nc4ccc(N5CCC(O)CC5)cn4)ncc3F)cc21 [Compound 447, 1-(6-((5-fluoro-4-(8-fluoro-4-isopropyl-3,4-dihydro-2H-benzo[b][1,4]oxazin-6-yl)pyrimidin-2-yl)amino)pyridin-3-yl)piperidin-4-ol] was tested, and the IC50 (FMS kinase) was 1680 nM, the IC50 (CDK6) was 1.6 nM and the IC50 (CDK7 (cyclin H)) was > 10000 nM. For the same compound, the IC50 (CDK9 (cyclin K)) was 243 nM, the IC50 (DU4475; [2]) was 230 nM and the IC50 (CDK1 (cyclin B)) was 238 nM. It also gave an IC50 (CDK4) of 1.1 nM, an IC50 (CDK2 (cyclin A)) of 36 nM and an IC50 (MCF-7; [3]) of 300 nM. For the same compound, the IC50 (PI3Kδ kinase) was > 50000 nM.

CC(C)N1CCOc2c(F)cc(-c3nc(Nc4ccc5c(c4)CCN(C(=O)CN(C)C)C5)ncc3F)cc21 [Compound 456, 2-(dimethylamino)-1-(6-((5-fluoro-4-(8-fluoro-4-isopropyl-3,4-dihydro-2H-benzo[b][1,4]oxazin-6-yl)pyrimidin-2-yl)amino)-3,4-dihydroisoquinolin-2(1H)-yl)ethan-1-one] was tested, and the IC50 (FMS kinase) was 4 nM, the IC50 (CDK6) was 3.5 nM and the IC50 (CDK1 (cyclin B)) was < 1 nM. For the same compound, the IC50 (CDK4) was 4 nM, the IC50 (CDK2 (cyclin A)) was < 1 nM and the IC50 (MCF-7; [3]) was < 4 nM. The IC50 (PI3Kδ kinase) was 19500 nM.

CC(C)N1CCOc2c(F)cc(-c3nc(Nc4ccc(N5CCCNCC5)cn4)ncc3F)cc21 [Compound 477, N-(5-(1,4-diazepan-1-yl)pyridin-2-yl)-5-fluoro-4-(8-fluoro-4-isopropyl-3,4-dihydro-2H-benzo[b][1,4]oxazin-6-yl)pyrimidin-2-amine] gave an IC50 (FMS kinase) of 752 nM, an IC50 (DU4475; [4]) of 1100 nM and an IC50 (CDK1 (cyclin B)) of 158 nM. For the same compound, the IC50 (CDK2 (cyclin A)) was 25 nM, the IC50 (MCF-7; [1]) was 280 nM and the IC50 (PI3Kδ kinase) was > 50000 nM.

For Fc1cnc(Nc2ccc(N3CCCNCC3)cn2)nc1-c1cc(F)c2c(c1)N(C1CCCC1)CCO2 [Compound 478, N-(5-(1,4-diazepan-1-yl)pyridin-2-yl)-4-(4-cyclopentyl-8-fluoro-3,4-dihydro-2H-benzo[b][1,4]oxazin-6-yl)-5-fluoropyrimidin-2-amine], the IC50 (FMS kinase) was 2220 nM, the IC50 (CDK6) was 27 nM and the IC50 (DU4475; [4]) was 1680 nM. The IC50 (CDK1 (cyclin B)) was 453 nM, the IC50 (CDK4) was 9 nM and the IC50 (CDK2 (cyclin A)) was 97 nM. It also gave an IC50 (MCF-7; [1]) of 665 nM and an IC50 (PI3Kδ kinase) of 33700 nM.

For CC(C)N1CCOc2c(F)cc(-c3nc(Nc4ccc5c(n4)CCNC5)ncc3F)cc21 [Compound 481, N-(5-fluoro-4-(8-fluoro-4-isopropyl-3,4-dihydro-2H-benzo[b][1,4]oxazin-6-yl)pyrimidin-2-yl)-5,6,7,8-tetrahydro-1,6-naphthyridin-2-amine], the IC50 (FMS kinase) was 426 nM, the IC50 (DU4475; [2]) was 345 nM and the IC50 (CDK1 (cyclin B)) was 69 nM. The IC50 (CDK2 (cyclin A)) was 24 nM, the IC50 (MCF-7; [3]) was 85 nM and the IC50 (PI3Kδ kinase) was > 20000 nM.

With Fc1cnc(Nc2ccc3c(n2)CCNC3)nc1-c1cc(F)c2c(c1)N(C1CCC1)CCO2 [Compound 482, N-(4-(4-cyclobutyl-8-fluoro-3,4-dihydro-2H-benzo[b][1,4]oxazin-6-yl)-5-fluoropyrimidin-2-yl)-5,6,7,8-tetrahydro-1,6-naphthyridin-2-amine] the IC50 (FMS kinase) was 1750 nM, the IC50 (CDK6) was 16 nM and the IC50 (DU4475; [4]) was 540 nM. For the same compound, the IC50 (CDK1 (cyclin B)) was 155 nM, the IC50 (CDK4) was 3 nM and the IC50 (CDK2 (cyclin A)) was 29 nM. For the same compound, the IC50 (MCF-7; [1]) was 230 nM and the IC50 (PI3Kδ kinase) was > 50000 nM.

In the case of CC(C)CN1CCOc2c(F)cc(-c3nc(Nc4ccc5c(n4)CCNC5)ncc3F)cc21 [Compound 483, N-(5-fluoro-4-(8-fluoro-4-isobutyl-3,4-dihydro-2H-benzo[b][1,4]oxazin-6-yl)pyrimidin-2-yl)-5,6,7,8-tetrahydro-1,6-naphthyridin-2-amine], the IC50 (FMS kinase) is reported as > 5000 nM, the IC50 (CDK6) is reported as 20 nM and the IC50 (DU4475; [4]) is reported as 665 nM. The IC50 (CDK1 (cyclin B)) was 181 nM, the IC50 (CDK4) was 25 nM and the IC50 (CDK2 (cyclin A)) was 44 nM. The IC50 (MCF-7; [1]) was 460 nM and the IC50 (PI3Kδ kinase) was > 50000 nM.

COCCNS(=O)(=O)c1ccc(Nc2ncc(F)c(-c3cc(F)c4c(c3)N(C(C)C)CCO4)n2)cc1 [Compound 523, 4-(5-fluoro-4-(8-fluoro-4-isopropyl-3,4-dihydro-2H-benzo[b][1,4]oxazin-6-yl)pyrimidin-2-ylamino)-N-(2-methoxyethyl)benzenesulfonamide] gave an IC50 (CDK6) of 51 nM, an IC50 (DU4475; [2]) of 75 nM and an IC50 (CDK1 (cyclin B)) of 21 nM. It also gave an IC50 (CDK4) of 20 nM, an IC50 (CDK2 (cyclin A)) of 74 nM and an IC50 (MCF-7; [3]) of 55 nM.
